In patent US4333926A, “Steryl-β-D-glucoside pharmaceutical compositions and use” (Nippon Shinyaku Co., Ltd., priority 1979, dated 1982):
Read-outs that look alike come from different tables or passages of the source.

Legend:
[1] = test system: pulmonary hemorrhage under reduced pressure; assay: Vascular stabilization: pulmonary hemorrhage in mice under reduced pressure (Table 6; vascular stability summary table); format: in vivo; conditions: for ED50: Mus musculus, iv, read-out: Vascular stability ED50; for ED50 (pulmonary hemorrhage): reduced pressure 50±0.5 mm Hg/15 sec
Procedure: For example, the following tables summarize the vascular stabilizing effect (described in detail below).
The surprising vascular stabilizing effect of these compounds can also be shown in a number of recognized models of which the following are typical.
The degree of pulmonary homorrhage in mice under reduced pressure of 50±0.5 mm Hg/15 sec was assessed by the scoring method, the ED50 of each compound being calculated from the ratio of inhibiting rate for treated animals over that for the control group according to the method of G. J. Mojovski et al., J. Pharmacol. Exp. Therap. 80, 1, 1944.

[2] = test system: bleeding from amputated tail tip; assay: Hemostatic effect, bleeding from amputated tail tip (Motohashi et al.); format: in vivo, mice
[3] = test system: bleeding from punctured ear vein; assay: Inhibitory effect on bleeding from ear vein (Duke); format: in vivo, rabbits; conditions: 10 mg/kg i.v., 3 hours after administration
Excerpt: The hemostatic effect can also be observed by measuring the inhibitory effect on bleeding from ear vein in rabbits.

[4] = test system: hemorrhages induced by vesical mucosal resection; assay: Hemorrhage induced by vesical mucosal resection (Dermaut et al.); format: in vivo, dogs; conditions: 5 mg/kg i.v.
[5] = test system: gastric mucosal hemorrhaging induced by electroshock; assay: Gastric mucosal hemorrhage induced by electroshock (Danno et al.); format: in vivo, rats
[6] = test system: local hemorrhage induced by snake venom (Naja Naja cobra); assay: Local hemorrhage induced by snake venom; format: in vivo, rats
Procedure: The inhibitory effect of SG and SGP on local hemorrhage induced by abdominal intracutaneous administration of snake venom (Naja Naja cobra) in rats was determined in terms of inhibiting rate against untreated control rats.

[7] = test system: abdominal cutaneous vascular resistance; assay: Abdominal cutaneous vascular resistance, petechia appearance under reduced pressure (Borbely et al.); format: in vivo, guinea-pigs; conditions: 100 mg/kg, s.c.; reduced pressure 250 to 260 mm Hg
Excerpt: The effect on abdominal cutaneous vascular resistance in guinea-pigs can also be used as a model of vascular stabilization. The time of appearance of petechia in abdominal skin of guinea-pigs under reduced pressure of 250 to 260 mm Hg is used as the index, with the petechia appearance delaying effect of each test compound in comparison with the control being determined according to the method of V. Borbely et al., Munch.

[8] = test system: increased vascular permeability caused by histamine; assay: Increased vascular permeability caused by histamine, rat; format: in vivo; conditions: 100 mg/kg, i.p.
Procedure: (§1) The inhibitory effect on increased vascular permeability caused by intracutaneous administration of histamine, hyaluronidase, lecithinase A and formalin is also correlated to vascular stabilization. This parameter was measured by the dye leakage method with the inhibitory effect of each test drug expressed in terms of inhibiting rate over the control according to the methods of Benditt et al., Proc. Soc. Biol. Med. 75 782 1950 and Orary et al., J. Exp. Med. 117, 951, 1963.

[9] = test system: increased vascular permeability caused by histamine; assay: Increased vascular permeability caused by histamine, rabbit; format: in vivo; conditions: 100 mg/kg, i.p.
Procedure: as §1

[10] = test system: increased vascular permeability induced by hyaluronidase; assay: Increased vascular permeability induced by hyaluronidase, rat; format: in vivo; conditions: 100 mg/kg, i.p.
Procedure: as §1

[11] = test system: increased vascular permeability induced by hyaluronidase; assay: Increased vascular permeability induced by hyaluronidase, rabbit; format: in vivo; conditions: 100 mg/kg, i.p.
Procedure: as §1

[12] = test system: increased vascular permeability induced by lecithinase A; assay: Increased vascular permeability induced by lecithinase A; format: in vivo, rabbits; conditions: 100 mg/kg, i.p.
Procedure: as §1

[13] = test system: increased vascular permeability induced by formalin; assay: Increased vascular permeability induced by formalin; format: in vivo, rabbits; conditions: 100 mg/kg, i.p.
Procedure: as §1

Arthus reaction = assay: Arthus reaction, increased vascular permeability (Benacerral et al.); format: in vivo, guinea-pigs; conditions: 100 mg/kg, i.p.; 5 hours after provocation
Procedure: Increased vascular permeability five hours after provocation of reaction is measured as the leakage of hemoglobin according to the method of Benacerral et al., J. Immunol.

endotoxin shock = assay: Endotoxin shock mortality (48 hours); format: in vivo
Procedure: The mortality rate during the period of 48 hours following intravenous administration of 80% lethal dose (8 mg/kg) of endotoxin is observed with the effect of each compound being expressed as the ED50 (see Tanabe et al., Pharmacometrics Vol. 7 591, 1973).

[14] = test system: passive systemic anaphylaxis; assay: Passive systemic anaphylaxis lethality (Munoz et al.); format: in vivo, guinea-pigs
Procedure: The preventive effect against passive systemic anaphylaxis was determined according to the method of Munoz et al., J. Immunol., 80, 77 (1958). An antigen of 80% lethal dose is intravenously administered to antiserum-sensitized guinea-pigs, and the resultant passive systemic anaphylaxis lethality is expressed as the inhibition rate as compared with the control group.

## CC[C@H](/C=C/[C@@H](C)[C@H]1CC[C@H]2[C@@H]3CC=C4C[C@@H](O[C@@H]5O[C@H](CO)[C@@H](O)[C@H](O)[C@H]5O)CC[C@]4(C)[C@H]3CC[C@]12C)C(C)C [Stigmasteryl-β-D-glucoside]
[1]; summary table by compound
  ED50: 2.33 mg/kg

## CC[C@H](CC[C@@H](C)[C@H]1CC[C@H]2[C@@H]3CC=C4C[C@@H](O[C@@H]5O[C@H](CO)[C@@H](O)[C@H](O)[C@H]5O)CC[C@]4(C)[C@H]3CC[C@]12C)C(C)C [β-sitosteryl-β-D-glucoside]
[1]; summary table by compound
  ED50: 1.48 mg/kg

## CC(C)[C@H](C)CC[C@@H](C)[C@H]1CC[C@H]2[C@@H]3CC=C4C[C@@H](O[C@@H]5O[C@H](CO)[C@@H](O)[C@H](O)[C@H]5O)CC[C@]4(C)[C@H]3CC[C@]12C [Campesteryl-β-D-glucoside]
[1]
  ED50: 2.4 mg/kg

## CC(C)CCC[C@@H](C)[C@H]1CC[C@H]2[C@@H]3CC=C4C[C@@H](O[C@@H]5O[C@H](CO)[C@@H](O)[C@H](O)[C@H]5O)CC[C@]4(C)[C@H]3CC[C@]12C [Cholesteryl-β-D-glucoside]
[1]; summary table by compound
  ED50: 1.8 mg/kg

## CN1C2=CC(=O)/C(=N\NC(N)=O)C=C2CC1S(=O)(=O)[O-].[Na+] (centres unmarked) [Carbazochrome sodium sulfonate]
[1]; i.p.
  ED50 (pulmonary hemorrhage): 112.0 mg/kg
[1]; i.v.
  ED50 (pulmonary hemorrhage): 80.0 mg/kg
[1]; p.o.
  ED50 (pulmonary hemorrhage): 400.0 mg/kg
[2]; i.p.
  ED50 (hemostatic effect): 5.4 mg/kg
[2]; i.v.
  ED50 (hemostatic effect): 3.6 mg/kg
[2]; p.o.
  ED50 (hemostatic effect): 36.0 mg/kg
[3]
  % Reduction (time of bleeding): 20.0%
[4]
  % Inhibition (bleeding): 39.9%
[5]; dose of 200 mg/kg
  electroshock hemorrhage arresting effect: no noticeable effect
[5]; s.c., electroshock 100-200 V, 3 times/min., 24 hours
  ED50 (inhibiting gastric mucosal hemorrhage): > 200.0 mg/kg
[6]; 100 mg/kg
  inhibitory effect against hemorrhagic action of snake venom: only slight effects
[6]; 100 mg/kg i.p.
  % Inhibition (local hemorrhage): 9.1%
[7]
  Prolongation Rate (test group/control group): 1.7
[8]
  % Inhibition: 32.7%
[9]
  % Inhibition: 29.6%
[10]
  % Inhibition: -4.5%
[11]
  % Inhibition: 4.7%
[12]
  % Inhibition: 10.8%
[13]
  % Inhibition: 0.4%
Arthus reaction
  % Inhibition (Arthus reaction): 26.3%
Endotoxin shock; doses of less than 200 mg/kg
  effect on endotoxin shock: no niticeable effect
Endotoxin shock; i.p., endotoxin 80% lethal dose (8 mg/kg) i.v., 48 hours
  ED50 (endotoxin shock): > 200.0 mg/kg
Endotoxin shock; in vivo
  inhibitory effect against death from endotoxin-shock: far inferior in effect to SG and SGP
[14]; 100 mg/kg, i.p., antigen 80% lethal dose i.v.
  % Inhibition (PSA lethality): 20%
[14]; dose of 100 mg/kg
  effect on passive systemic anaphylaxis: only very slight effects
